Patent publication EP0054589B1, “Organic phosphoric acid ester derivatives, a process for preparing the same and insecticidal, miticidal or nematocidal compositions containing the same” (priority 1980, dated 1982)
Like-named read-outs stand apart in the source and are kept apart here.

What was measured:
rice stem borer = assay: Insecticidal effect on rice stem borer, 3rd-instar larvae (rice seedling dip); type: in vivo, Chilo suppressalis; conditions: after 72 hours, 25°C
Method in brief: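 Wettable-powder formulations were diluted in water to set concentrations, and rice seedlings were dipped in them. Ten 3rd-instar larvae were placed per capped cup with the treated seedlings and held at 25°C.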

tobacco cutworm [1] = assay: Insecticidal effect on tobacco cutworm (cabbage leaf dip); type: in vivo, Prodenia litura; conditions: after 48 hours, 25°C
Method in brief: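 Cabbage leaves dipped in water-diluted emulsifiable concentrate (two formulations, tests A and B) and air-dried were fed to 3rd-instar tobacco cutworm larvae at 25°C. Percent mortality scored after 48 hours; 3 replicates of 30 insects per compound.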

tobacco cutworm [2] = assay: Long-lasting insecticidal effect on tobacco cutworm (sprayed cabbage plantlet); type: in vivo, Prodenia litura; conditions: concentration 500 (unit not given), mortality after 48 hours; for Percent Mortality After Application 3rd Day: leaves cut on 3rd day; for Percent Mortality After Application 5th Day: leaves cut on 5th day; for Percent Mortality After Application 7th Day: leaves cut on 7th day; for Percent Mortality After Application 10th Day: leaves cut on 10th day; for Percent Mortality After Application 15th Day: leaves cut on 15th day
Method in brief: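 Cabbage plantlets sprayed with water-diluted emulsifiable concentrate and held in a greenhouse; leaves cut on days 3, 5, 7, 10 and 15 and fed to 3rd-instar larvae at 25°C. Percent mortality scored after 48 h; 3 replicates, 30 insects each.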

diamond back moth = assay: Insecticidal effect on diamond-back moth (cabbage leaf dip); type: in vivo, Plutella xylostella; conditions: 100 ppm, after 72 hours, 25°C
Protocol: (§1) (A) An emulsifiable concentrate prepared as described in Formulation Example 1 was diluted with water to a predetermined concentration and leaves of a cabbage were dipped into the dilute emulsion for 10 seconds followed by drying in air, and charged in a 60 ml volume cup made of vinyl chloride resin. Then, thirty 3rd-instar larvae of diamond back moth were put in each cup, and the cups were kept at 25°C. After 72 hours, percent mortality was assessed and the test was replicated 3 times for each treatment.
as §1, with “(B) An” for “(A) An”, “Example 4” for “Example 1”

smaller tea tortrix = assay: Insecticidal effect on smaller tea tortrix (apple leaf dip); type: in vivo; conditions: Adoxophyes orana, foliar; Table 9; 100 ppm; after 72 hours, 25°C; wettable powder as Formulation Example 5; read-out: Percent Mortality
Protocol: Leaves of an apple tree were dipped into a dilute water suspension of a wettable powder prepared as described in Formulation Example 5. After drying in air, the leaves were charged in a 60 ml volume cup made of vinyl chloride resin, and […] 3rd-instar larvae of smaller tea tortrix were put in each cup. The cups were capped and kept at 25°C. After 72 hours, the number of the surviving insects and the dead insects were recorded to determine percent mortality. In each treatment, 3 cups and 30 insects were used in total.

apple leaf miner = assay: Insecticidal effect on apple leaf miner (sprayed apple seedling); type: in vivo, Lithocolletis ringoniella; conditions: Phyllonorycter ringoniella, 336 h, 500 ppm, fourteen days after spraying
Protocol: (§2) (A) A dilute water suspension of a wettable powder prepared as described in Formulation Example 5 was sufficiently sprayed using a spray-gun on a seedling of an apple tree planted in a bisque flower pot to which plant larvae of apple leaf miner just after hatching were parasitic. Thereafter the pots were placed in a green house. Fourteen days after the spraying, bores made by larvae were broken and percent mortality was assessed for all the leaves of each seedling. Three pots were used for each treatment.
as §2, with “(B)” for “(A)”, “7” for “5”

Apple = assay: Phytotoxicity on various crops; type: in vivo; set-up: key: Symbol — indicates that no toxicity was observed; conditions: 500 ppm sprayed; checked visually after 10 days
Method in brief: (§3)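 Plants were sprayed with an aqueous dilution of an emulsifiable concentrate at 500 ppm of active ingredient, then kept under greenhouse conditions. Injury was assessed by eye ten days later.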

Beet = assay: Phytotoxicity on various crops; type: in vivo; set-up: key: Symbol — indicates that no toxicity was observed; conditions: 500 ppm sprayed; checked visually after 10 days
Method in brief: as §3

Cabbage = assay: Phytotoxicity on various crops; type: in vivo; set-up: key: Symbol — indicates that no toxicity was observed; conditions: 500 ppm sprayed; checked visually after 10 days
Method in brief: as §3

Cotton = assay: Phytotoxicity on various crops; type: in vivo; set-up: key: Symbol — indicates that no toxicity was observed; conditions: 500 ppm sprayed; checked visually after 10 days
Method in brief: as §3

Cucumber = assay: Phytotoxicity on various crops; type: in vivo; set-up: key: Symbol — indicates that no toxicity was observed; conditions: 500 ppm sprayed; checked visually after 10 days
Method in brief: as §3

Green Pepper = assay: Phytotoxicity on various crops; type: in vivo; set-up: key: Symbol — indicates that no toxicity was observed; conditions: 500 ppm sprayed; checked visually after 10 days
Method in brief: as §3

Kidney Bean = assay: Phytotoxicity on various crops; type: in vivo; set-up: key: Symbol — indicates that no toxicity was observed; conditions: 500 ppm sprayed; checked visually after 10 days
Method in brief: as §3

Rice = assay: Phytotoxicity on various crops; type: in vivo; set-up: key: Symbol — indicates that no toxicity was observed; conditions: 500 ppm sprayed; checked visually after 10 days
Method in brief: as §3

Tea = assay: Phytotoxicity on various crops; type: in vivo; set-up: key: Symbol — indicates that no toxicity was observed; conditions: 500 ppm sprayed; checked visually after 10 days
Method in brief: as §3

Tomato = assay: Phytotoxicity on various crops; type: in vivo; set-up: key: Symbol — indicates that no toxicity was observed; conditions: 500 ppm sprayed; checked visually after 10 days
Method in brief: as §3

egg plant = assay: Phytotoxicity on various crops; type: in vivo; set-up: key: Symbol — indicates that no toxicity was observed; conditions: 500 ppm sprayed; checked visually after 10 days
Method in brief: as §3

[3] = Table 1, 100 ppm, wettable powder as Formulation Example 5
[4] = Table 1, 500 ppm, wettable powder as Formulation Example 5
[5] = Table 3, 500 ppm, emulsifiable concentrate as Formulation Example 1
[6] = Table 7, emulsifiable concentrate as Formulation Example 1
[7] = Table 10, wettable powder as Formulation Example 5, read-out: Percent Morality (%)
[8] = Table 2, 100 ppm, wettable powder as Formulation Example 7
[9] = Table 4, 100 ppm, emulsifiable concentrate as Formulation Example 3
[10] = Table 8, emulsifiable concentrate as Formulation Example 4

Row | SMILES | Percent Mortality (%) (rice stem borer; [3]) | Percent Mortality (%) (rice stem borer; [4]) | Percent Mortality (%) (tobacco cutworm [1]; [5]) | Percent Mortality (%) (diamond back moth; [6]) | mortality at 100 ppm (smaller tea tortrix) | mortality at 500 ppm (apple leaf miner; [7]) | Phytotoxicity: Apple (Apple) | Phytotoxicity: Beet (Beet) | Phytotoxicity: Cabbage (Cabbage) | Phytotoxicity: Cotton (Cotton) | Phytotoxicity: Cucumber (Cucumber) | Phytotoxicity: Green Pepper (Green Pepper) | Phytotoxicity: Kidney Bean (Kidney Bean) | Phytotoxicity: Rice (Rice) | Phytotoxicity: Tea (Tea) | Phytotoxicity: Tomato (Tomato) | Phytotoxicity: Egg Plant (egg plant) | Percent Mortality (%) (rice stem borer; [8]) | Percent Mortality (%) (tobacco cutworm [1]; [9]) | Percent Mortality (%) (diamond back moth; [10]) | further results
1 | CCC(C)SP(=O)(OC)Oc1ccc2c(c1)OC(C)=CC2(C)C (centres unmarked) [Compound No. 16, O-methyl-S-sec-butyl-O-(2,4,4-trimethyl-1,4-benzopyran-7-yi) phosphorothioate] | 100% | 100% | 100% | 100% | 100% | 100% | — | — | — | — | — | — | — | — | — | — | — |  |  |  | Percent Mortality After Application 3rd Day (tobacco cutworm [2]; Table 5): 100%; Percent Mortality After Application 5th Day (tobacco cutworm [2]; Table 5): 100%; Percent Mortality After Application 7th Day (tobacco cutworm [2]; Table 5): 100%; Percent Mortality After Application 10th Day (tobacco cutworm [2]; Table 5): 100%; Percent Mortality After Application 15th Day (tobacco cutworm [2]; Table 5): 100%
2 | CCOP(=O)(Oc1ccc2c(c1)OC(C)(C)C=C2C)SC(C)CC (centres unmarked) [Compound No. 18] | 100% | 100% | 100% |  | 100% | 100% | — | — | — | — | — | — | — | — | — | — | — | 100% | 100% | 83.3% | 
3 | CCCSP(=O)(OCC)Oc1ccc2c(c1)OC(C)CC2(C)C (centres unmarked) [compound 17] | 100% | 100% | 100% | 100% | 100% |  | — | — | — | — | — | — | — | — | — | — | — | 100% | 100% | 100% | Percent Mortality After Application 3rd Day (tobacco cutworm [2]; Table 5): 100%; Percent Mortality After Application 5th Day (tobacco cutworm [2]; Table 5): 100%; Percent Mortality After Application 7th Day (tobacco cutworm [2]; Table 5): 100%; Percent Mortality After Application 10th Day (tobacco cutworm [2]; Table 5): 100%; Percent Mortality After Application 15th Day (tobacco cutworm [2]; Table 5): 53.3%; Percent Mortality After Application 3rd Day (tobacco cutworm [2]; Table 6): 100%; Percent Mortality After Application 5th Day (tobacco cutworm [2]; Table 6): 100%; Percent Mortality After Application 7th Day (tobacco cutworm [2]; Table 6): 100%; Percent Mortality After Application 10th Day (tobacco cutworm [2]; Table 6): 93.3%; Percent Mortality After Application 15th Day (tobacco cutworm [2]; Table 6): 30%; Percent Mortality After Application Immediately after Application (tobacco cutworm [2]; Table 6): 100%
4 | CCOP(=O)(Oc1cccc2c1C(C)=CC(C)(C)O2)SC(C)CC (centres unmarked) [compound 23] | 100% | 100% | 100% | 100% | 100% | 100% | — | — | — | — | — | — | — | — | — | — | — | 100% | 100% | 100% | mortality at 500 ppm (apple leaf miner; Table 11, wettable powder as Formulation Example 7, read-out: Percent Mortality (%)): 100%
